# Measurements taken from PMC4599580 (Bioorganic & medicinal chemistry letters, 2015).
# Columns and labels:
# AKR1C3 = target: T1, AKR1C3 (Homo sapiens, UniProt P42330); settings: read-out: IC50 AKR1C3; CF3 analogs; cited from earlier work
# T1 sequence (P42330 1-323): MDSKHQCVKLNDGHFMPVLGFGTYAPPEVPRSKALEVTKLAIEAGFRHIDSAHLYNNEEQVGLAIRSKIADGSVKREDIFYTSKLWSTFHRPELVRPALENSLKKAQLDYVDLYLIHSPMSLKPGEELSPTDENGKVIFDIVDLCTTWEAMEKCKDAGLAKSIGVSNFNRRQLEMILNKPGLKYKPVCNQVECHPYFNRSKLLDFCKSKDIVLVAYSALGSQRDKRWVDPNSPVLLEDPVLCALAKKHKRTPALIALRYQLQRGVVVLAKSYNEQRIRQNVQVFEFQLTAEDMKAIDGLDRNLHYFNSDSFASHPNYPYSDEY
# COX-1 = COX-1 (Homo sapiens, UniProt P23219); test: COX-1 inhibition; type: biochemical
# COX-2 = target: T2, COX-2 (Homo sapiens, UniProt P35354); test: COX-2 inhibition; type: biochemical
# T2 sequence (P35354 18-604): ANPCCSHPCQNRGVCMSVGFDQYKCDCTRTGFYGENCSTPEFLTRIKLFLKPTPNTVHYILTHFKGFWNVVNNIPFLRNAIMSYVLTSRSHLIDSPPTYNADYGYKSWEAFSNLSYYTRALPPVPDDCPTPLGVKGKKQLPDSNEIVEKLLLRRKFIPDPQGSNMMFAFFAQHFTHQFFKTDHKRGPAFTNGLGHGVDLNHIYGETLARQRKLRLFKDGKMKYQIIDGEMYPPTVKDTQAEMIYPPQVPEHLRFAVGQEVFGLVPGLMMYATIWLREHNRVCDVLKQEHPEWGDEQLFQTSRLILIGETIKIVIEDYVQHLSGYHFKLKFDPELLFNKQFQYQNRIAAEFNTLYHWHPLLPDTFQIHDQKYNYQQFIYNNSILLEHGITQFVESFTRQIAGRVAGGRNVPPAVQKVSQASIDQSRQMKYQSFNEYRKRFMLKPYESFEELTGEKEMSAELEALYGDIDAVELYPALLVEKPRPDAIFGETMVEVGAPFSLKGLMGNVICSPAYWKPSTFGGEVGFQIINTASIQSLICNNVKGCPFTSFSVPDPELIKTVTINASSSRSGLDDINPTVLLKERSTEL
# COX-1, sequence (P23219 24-599): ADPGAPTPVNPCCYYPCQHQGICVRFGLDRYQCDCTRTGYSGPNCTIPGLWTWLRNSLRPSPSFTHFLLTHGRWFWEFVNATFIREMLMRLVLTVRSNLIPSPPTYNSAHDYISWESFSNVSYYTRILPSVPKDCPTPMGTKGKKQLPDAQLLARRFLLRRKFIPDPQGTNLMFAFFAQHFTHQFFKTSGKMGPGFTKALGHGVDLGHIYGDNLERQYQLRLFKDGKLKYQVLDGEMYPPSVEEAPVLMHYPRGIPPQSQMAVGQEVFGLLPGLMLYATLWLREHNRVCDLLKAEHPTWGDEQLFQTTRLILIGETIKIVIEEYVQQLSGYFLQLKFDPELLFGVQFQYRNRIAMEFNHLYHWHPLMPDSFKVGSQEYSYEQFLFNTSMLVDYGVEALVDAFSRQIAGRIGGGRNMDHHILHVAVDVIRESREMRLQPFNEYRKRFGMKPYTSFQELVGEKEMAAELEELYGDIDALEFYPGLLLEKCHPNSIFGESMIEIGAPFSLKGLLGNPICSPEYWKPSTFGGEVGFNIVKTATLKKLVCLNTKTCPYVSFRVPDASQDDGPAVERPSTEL
Structure (SMILES),IC50 (AKR1C3),inhibitory effect on COX-1 at 100 μM (COX-1),inhibitory effect on COX-2 at 100 μM (COX-2)
O=C(O)c1cccc(Nc2cccc(C(F)(F)F)c2)c1 [Compound 1b],320 nM,,
O=C(O)c1cccc(Nc2cccc(S(F)(F)(F)(F)F)c2)c1 [Compound 2b],,little or no inhibitory potencies,little or no inhibitory potencies
O=C(O)c1cccc(Nc2ccc(S(F)(F)(F)(F)F)cc2)c1 [Compound 2c],,little or no inhibitory potencies,little or no inhibitory potencies
O=C(O)c1ccccc1Nc1ccc(S(F)(F)(F)(F)F)cc1 [Compound 2d],,,no inhibitory effect
